Measurements reported in PubChem BioAssay AID179 (DTP/NCI, 2004).
Activity calls are given as the source filed them.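 Rule for the calls: active = compounds giving half or more protection of infected cells from virus-caused growth loss, again on retest; inactive = the rest.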

Tested on: CEM cells HIV-1 protection, formazan growth assay
Experiment: NCI AIDS Antiviral Assay
Conditions: for IC50: measured here: growth of uninfected CEM cells
In short: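 Protection of CEM cells against HIV-1 was scored from cell growth (soluble formazan) across five concentrations, with parallel uninfected cells. Lack of protection may reflect toxicity.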

Structure (SMILES)	EC50	IC50	outcome
O=C(CCCN1CC=C(n2c(=O)[nH]c3ccccc32)CC1)c1cccs1	> 200 µM	120 µM	–
Cc1cc2nc(CCC(=O)O)c(=O)[nH]c2cc1C	> 1000 µM	> 1000 µM	–
CN1CCCS/C1=C1/SC(=S)N(c2ccccc2)C1=O	> 30.9 µM	> 30.9 µM	–
O=C1CC(=O)N2C(=O)CC(=O)N12	> 537 µM	> 537 µM	–
CC(=O)Nc1ccc(SC#N)c2c(NC(C)=O)cccc12	–	–	inactive
O=S1(=O)C(c2ccccc2)C(N2CCCCC2)C1C1CC2c3ccccc3C1c1ccccc12 (stereo not drawn)	> 200 µM	8.32 µM	–
Cc1cccc(CC(C)(C)C)c1NC(=O)C(=O)C(C(=O)c1ccc2ccccc2c1)C1OC(=O)c2ccccc21 (stereo not drawn)	> 126 µM	56.2 µM	–
COc1ccc(C=C(C(=O)O)C(=O)O)cc1	> 1120 µM	> 1120 µM	–
CC(C)C1=C(O)C2=C(C(=O)C1=O)C1(C)CCCC(C)(C)C1C(O)C2OC=O (stereo not drawn)	> 200 µM	10.2 µM	–
CC(C)CC(NC(=O)C(Cc1ccccc1)NC(=O)[C@H]1CC[C@H](NC(=O)C(N)Cc2ccc(O)cc2)C1)C(N)=O (stereo partly drawn)	–	–	inactive
c1ccc2c3ccn4ccc5c6ccccc6[nH]c5c4c-3nc2c1	> 10 µM	0.513 µM	–
O=[N+]([O-])c1ncnc2c1ncn2C1OC(CO)CC1F (stereo not drawn)	> 89.1 µM	28.2 µM	–
Cc1ncc([N+](=O)[O-])n1CCNC(=O)CCCn1cnc([N+](=O)[O-])n1	> 200 µM	> 200 µM	–
Cc1cc(=NCCCN(C)C)c2ccc3c(ccc4c(=NCCCN(C)C)cc(C)n(O)c43)c2n1O	> 200 µM	10.2 µM	–
O=C1CN(CCCN2CCOCC2)CC(=O)N2CCCCN12	> 200 µM	> 200 µM	–
COc1ccc2c(c1)OCC(O)(c1ccccc1)C2O (stereo not drawn)	> 200 µM	> 200 µM	–
COC(OC)(c1ccccc1)C(I)I	–	–	inactive

Structure (SMILES)	EC50	IC50	outcome
CC(=O)Oc1cccc2c1[nH]c(=O)c1c(OC(C)=O)c3c(cc12)OCO3	–	–	inactive
COc1cc2c(cc1OCc1ccccc1)C=CN(C(=O)c1ccccc1)C2C#N (stereo not drawn)	–	–	inactive
C[n+]1c(/C=C/c2ccc(/C=N/NC(=O)c3ccc(C(=O)N/N=C/c4ccc(/C=C/c5cn6ccccc6[n+]5C)cc4)cc3)cc2)cn2ccccc21	> 3.55 µM	> 3.55 µM	–
CCOC(=O)c1nc2cc(F)c(N3CCOCC3)cc2[nH]c1=O	> 200 µM	95.5 µM	–
O=C1CCCCc2cccc(O)c21	> 200 µM	> 200 µM	–
NC1=CN(Cc2ccccc2)C2=N/C(=C\c3ccco3)C(=O)N12	> 200 µM	191 µM	–
O=C1CCC(=O)C(C(=O)CCC(=O)Nc2cccc(Cl)c2)C1 (stereo not drawn)	> 562 µM	> 562 µM	–
O=C(O)c1c2ccccc2nc2[nH]c(=O)[nH]c(=O)c12	–	141 µM	inactive
CCCCCC(C(O)C#N)C(O)(C(F)(F)F)C(F)(F)F (stereo not drawn)	> 200 µM	52.5 µM	–
COC(CNC(=O)C(C)NC(=O)CCc1ccccc1)OC (stereo not drawn)	–	–	inactive
COc1cccc(C=C(C(C)=O)C(C)=O)c1	> 120 µM	58.9 µM	–
CC(C)CCCCCCCCCCCCC(=O)NCC(=O)NC1C(O)C(O)C(Nc2ncnc3nc[nH]c23)OC1C(O)CO (stereo not drawn)	> 0.417 µM	0.00224 µM	–
O=C(Nc1ccccc1)Nc1ccccn1	166 µM	> 200 µM	–
CCCCCCCCCCCCC(SCCNC(=O)CCNC(=O)C(O)C(C)(C)COP(=O)(O)OP(=O)(O)OCC1OC(n2cnc3c(N)ncnc32)C(O)C1OP(=O)(O)O)C(=O)NCC(N)=O (stereo not drawn)	–	–	inactive
N#Cc1cc2c(n(C3OC(CO)C(O)C(O)C3O)c1=S)CCCC2 (stereo not drawn)	> 200 µM	> 200 µM	–
CCN1C[C@]2(COC)CCC(OC(=O)c3ccc(OC)cc3)C34[C@@H]5C[C@@H]6C(OC(C)=O)[C@@H]5[C@](OC(C)=O)(C[C@@H]6OC)[C@@H](C(OC)[C@@H]32)[C@H]14 (stereo partly drawn)	–	–	inactive
